Results on 14 compounds are retold here after PubChem BioAssay (NCI).

Several values for one entry are separate records, joined by “and”; a condition that tells them apart may be missing. Identical values can stand only once.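 These data come from cells grown in 96-well plates and exposed to compound for 48 hours at five concentrations. The concentration for 50% growth inhibition is given as GI50. TGI denotes the concentration required for complete inhibition of growth.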 Where only a bound is given, the exact number is not on record here.

Some test systems named below: SR leukemia; CCRF-CEM leukemia; ACHN renal; EKVX NSCLC; NCI-H23 lung; OVCAR-5 ovarian; OVCAR-8 ovarian; HL-60(TB) leukemia; NCI/ADR-RES ovarian; MDA-N.
Common to all, as to experiment: NCI anticancer screen, dose series, 48 h

As for `Nc1nc(N)c(N=O)c(Nc2ccc(Br)cc2)n1`, the TGI was over 100 µM in the assay with SR leukemia; over 100 µM with CCRF-CEM leukemia; 49.3 µM in the assay on ACHN renal; over 100 µM with EKVX NSCLC; over 100 µM with NCI-H23 lung; over 100 µM in the assay with OVCAR-5 ovarian. Besides, the TGI in the assay on OVCAR-8 ovarian and in the assay on HL-60(TB) leukemia was over 100 µM in each case.

`C=Cc1ccc(C)[n+](C[Si](C)(C)O[Si](C)(C)C[n+]2cc(C=C)ccc2C)c1`: the TGI with SR leukemia, in the assay with CCRF-CEM leukemia, in the assay with ACHN renal, with EKVX NSCLC, with NCI-H23 lung and with OVCAR-5 ovarian was over 100 µM each time. Also, the TGI in the assay with OVCAR-8 ovarian and in the assay with HL-60(TB) leukemia was over 100 µM throughout.

`CC(=O)O/N=C/c1c2ccccc2cc2ccccc12`: the TGI in the assay on SR leukemia is over 100 µM; with NCI/ADR-RES ovarian, over 100 µM; in the assay with CCRF-CEM leukemia, over 100 µM; in the assay with ACHN renal it was 68.5 µM; in the assay on EKVX NSCLC, over 100 µM; in the assay with NCI-H23 lung, over 100 µM. Further, the TGI is over 100 µM with OVCAR-5 ovarian, 50.3 µM with OVCAR-8 ovarian and over 100 µM in the assay on HL-60(TB) leukemia.

With `CC(=O)OCC1OC(n2cc(I)c(=O)[nH]c2=O)C(OC(C)=O)C(OC(C)=O)C1OC(C)=O` (configuration not stated), the TGI with SR leukemia, in the assay on CCRF-CEM leukemia, in the assay with ACHN renal, with EKVX NSCLC, with NCI-H23 lung and in the assay on OVCAR-5 ovarian was over 100 µM throughout. For the same compound, the TGI in the assay on OVCAR-8 ovarian and with HL-60(TB) leukemia was over 100 µM each time.

Consider `O=C1Sc2ccccc2C(=O)N2CSCC12` (configuration not stated), for which the TGI in the assay with SR leukemia, in the assay on CCRF-CEM leukemia, in the assay with ACHN renal, in the assay with EKVX NSCLC, in the assay on NCI-H23 lung and in the assay on OVCAR-8 ovarian was over 100 µM each time. Further, the TGI in the assay with HL-60(TB) leukemia is over 100 µM.

On to `COc1cc2cc(Oc3ccc(NC(=O)c4cc(C(F)(F)F)cc(C(F)(F)F)c4)cc3)c(C)nc2cc1OC`, for which the GI50 was 4.8 µM with SR leukemia; 2.61 µM in the assay on NCI/ADR-RES ovarian; 2.32 µM in the assay with CCRF-CEM leukemia; 2.27 µM with ACHN renal; 2.04 µM in the assay on EKVX NSCLC; 2.71 µM in the assay on NCI-H23 lung. Moreover, the results for the GI50 in the assay with OVCAR-5 ovarian and in the assay on HL-60(TB) leukemia were over 50 µM and 3.51 µM, respectively. Moreover, the TGI with SR leukemia, with NCI/ADR-RES ovarian, with CCRF-CEM leukemia, in the assay with ACHN renal, with EKVX NSCLC and in the assay with NCI-H23 lung was over 50 µM each time. For the same compound, the TGI in the assay on OVCAR-5 ovarian and in the assay on HL-60(TB) leukemia was over 50 µM each time.

With `N#CC1=C(c2ccccc2)NNC(c2ccc(Cl)cc2)CC1=O` (configuration not stated), the TGI with SR leukemia, in the assay with ACHN renal, in the assay with NCI-H23 lung, with OVCAR-5 ovarian and with HL-60(TB) leukemia was over 100 µM in each case.

For the compound `CC(C)=CCC/C(C)=C/COC(C)(C)C1=CCC(C)CC1` (configuration not stated) (tested in a mixture with another compound), the TGI with SR leukemia was 36.1 µM; in the assay on ACHN renal, over 100 µM; in the assay on EKVX NSCLC, over 100 µM; with NCI-H23 lung it was over 100 µM; in the assay with OVCAR-5 ovarian, over 100 µM; with OVCAR-8 ovarian, over 100 µM. In addition, the figures for the TGI in the assay with HL-60(TB) leukemia and with MDA-N were 50.9 µM and over 100 µM, respectively.

As for `CCC1=CC2CN3Cn4c(c(COCc5c6n(c7ccccc57)CN5CC7C=C(CC)C5C6(C(=O)OC)C7)c5ccccc54)C(C(=O)OC)(C2)C13`, the TGI in the assay on SR leukemia, in the assay with CCRF-CEM leukemia, in the assay on ACHN renal, in the assay with EKVX NSCLC, in the assay on NCI-H23 lung and in the assay with OVCAR-8 ovarian was over 100 µM each time. Also, in the assay on HL-60(TB) leukemia, the TGI is over 100 µM.

Regarding `O=C(Cc1nc2c3c(ccc2[nH]c1=O)C(=O)c1ccccc1C3=O)C(=O)Nc1ccccc1[N+](=O)[O-]`, the TGI in the assay with SR leukemia was determined as 51.1 µM; in the assay on CCRF-CEM leukemia, 11.6 µM; in the assay with ACHN renal, 33.9 µM; in the assay with EKVX NSCLC, 36.7 µM; in the assay with NCI-H23 lung it was 35.4 µM; in the assay with OVCAR-5 ovarian, 41.1 µM. The TGI with OVCAR-8 ovarian was 39.6 µM; in the assay with HL-60(TB) leukemia it was 43.7 µM.

On to `Cc1cn(-c2cc(C(=O)Nc3cccc(-n4ccc5c(NC(=O)c6ccccc6)nccc54)c3)cc(C(F)(F)F)c2)cn1`, for which the GI50 in the assay on SR leukemia is 0.14 µM; with NCI/ADR-RES ovarian, 1.13 µM; in the assay on CCRF-CEM leukemia, 0.299 µM; in the assay with ACHN renal, 0.549 µM; in the assay on EKVX NSCLC, 2.32 µM; in the assay on NCI-H23 lung it was 1.06 µM. The figures for the GI50 in the assay with OVCAR-5 ovarian, in the assay on OVCAR-8 ovarian and with HL-60(TB) leukemia were 0.802 µM, 0.419 µM and 0.451 µM, respectively. In addition, the TGI in the assay with NCI/ADR-RES ovarian is over 33.4 µM; in the assay on CCRF-CEM leukemia, 2.09 µM; in the assay with ACHN renal, 8.7 µM; with EKVX NSCLC it was 30.2 µM; in the assay on NCI-H23 lung it was 19.9 µM; in the assay with OVCAR-5 ovarian, 14.6 µM. For the same compound, the TGI in the assay with OVCAR-8 ovarian amounted to 2.99 µM; in the assay with HL-60(TB) leukemia it was 2.5 µM.

As for `O=c1[nH]cnc(NC2C=C(CO)C(O)C2O)c1[N+](=O)[O-]` (configuration not stated), the TGI in the assay on SR leukemia, with CCRF-CEM leukemia, in the assay on ACHN renal, in the assay on EKVX NSCLC, with NCI-H23 lung and with OVCAR-5 ovarian was over 100 µM throughout. Also, the TGI in the assay on OVCAR-8 ovarian was over 100 µM; with HL-60(TB) leukemia, over 51.7 µM.

As to `CCOP(=O)(OCC)C(C(=O)OC)C(=O)C(=O)Nc1ccc(Cl)cc1Cl` (configuration not stated), the TGI in the assay on CCRF-CEM leukemia, with ACHN renal, in the assay on EKVX NSCLC, in the assay on NCI-H23 lung, with OVCAR-5 ovarian and in the assay with OVCAR-8 ovarian was over 100 µM throughout. In the assay on HL-60(TB) leukemia, this compound returned a TGI of over 100 µM.

As to `ClC(Cl)=C1C(=C(Cl)Cl)C(Cl)(Cl)C1(Cl)Cl`, the TGI turned out to be 3.46 µM in the assay with SR leukemia; 1.5 µM in the assay with CCRF-CEM leukemia; 8.81 µM in the assay on ACHN renal; 16.6 µM in the assay on EKVX NSCLC; 3.57 µM in the assay with NCI-H23 lung; 6.25 µM in the assay with OVCAR-5 ovarian. In addition, the TGI was 18.7 µM with OVCAR-8 ovarian; 0.66 µM and 2.11 µM in the assay on HL-60(TB) leukemia; 2.81 µM in the assay on MDA-N. In addition, the GI50 in the assay with CCRF-CEM leukemia was 0.334 µM; with HL-60(TB) leukemia, 0.259 µM.
